“Also recorded” adds a separate entry of the source.
Tests used:
hNV-RdRp = hNV-RdRp inhibition assay (PicoGreen dsRNA formation); assay type: biochemical, Norovirus GII.4 Sydney 2012; conditions: dose response, two-fold dilutions
DENV RdRp [1] = target: T1, DENV RdRp (Dengue virus type 3, UniProt Q6YMS4); experiment: Bio-layer interferometry (BLI) binding assay, DENV RdRp
MNV(SH1603) = experiment: Infection assay with MNV in RAW264.7 cells (qRT-PCR); assay type: cell-based, murine norovirus (MNV)
[2] = oral, rat; no reference given; cited from earlier work
RAW264.7 cells = experiment: Cytotoxicity analysis (Cell Counting kit-8), RAW264.7; assay type: cell-based; conditions: up to 10 μM, 48 h, CCK-8
Experimental: (§1) Twenty-four hour prior to the cytotoxicity assay, 4 × 10^4 RAW264.7 or A549 cells were seeded in 96-well plates. After that, 2-fold serial dilutions (from 0.625 to 40 μM) of RAI-13 were added to the cells. Cells treated with DMSO were served as the control. Cells were cultivated for 48 h, after that the cell viability was assessed by Cell Counting kit-8.

[3] = as above; assay type: cell-based; conditions: mouse, RAW264.7 cells, CCK-8
Experimental: as §1

hNV RdRp = experiment: Bio-layer interferometry (BLI) binding assay, hNV RdRp; conditions: read-out: KD hNV RdRp, 1:1 binding model, global fit
DENV RdRp [4] = target: T1, DENV RdRp; experiment: DENV-RdRp inhibition assay (PicoGreen dsRNA formation); assay type: biochemical; design: RdRp gens of DENV; inferred from Ni-NTA purification and the pET-21a(+) vector); made in house; host or cells: Escherichia coli BL21; conditions: 40 μM compound
Experimental: Polymerase activity was measured by detecting the formation of double-stranded RNA (dsRNA) using the fluorescent dye PicoGreen ([Singer et al., 1997]). RdRp assays were performed in a black 96-well plates, which protects reaction mixture from light. In vitro RNA synthesis assays were performed using a single-stranded RNA poly(C) as template and GTP as substrate in a 25 μL reaction mixture. 5 μL of DENV-RdRp (20 μM), dissolved in a reaction buffer containing 20 mM Tris–HCl (pH 7.4), 2.5 mM MnCl2, 5 mM DTT, was incubated with 1 μL of 1 mM compound (RAI-5, RAI-13, RAI-14, and JF-31-MG46 served as positive control) or the compound vehicle DMSO at 30°C for 10 min. Subsequently, 1 μL of 1 mg/mL poly(C) and 2 μL of 625 μM GTP were added into the mixture for 60 min at 30°C. The final concentrations of the reaction components are 4 μM DENV-RdRp, […], 50 μM GTP, 40 μM compound, 4% DMSO, […] (pH 7.4), 2.5 mM MnCl2 and 5 mM DTT. The reaction was terminated with 10 mM EDTA. After that, 175 μL of fluorescent dye PicoGreen, diluted 200-fold with TE buffer, was added to each well for 5 min at room temperature. Microplate reader was used to quantify the amount of dsRNA at standard wavelengths (excitation 480 nm, emission 520 nm).

Jc1-Gluc HCVcc = experiment: Infection assay with Jc-1-Gluc HCVcc in Huh7.5.1 cells; assay type: cell-based, hepatitis C virus (HCV); conditions: Hepatitis C virus
Experimental: 2 × 10^4 per well Huh7.5.1 cells were seeded into 96-well plates for 24 h, and then cells were incubated with RAI-13 (1 μM) and Jc1-Gluc HCVcc at an MOI of 1 for 4 h. Next, the culture supernatants were replaced by Fresh medium with 1 μM RAI-13. After 48 h, we measured the amounts of infectious Jc1 HCVcc in the supernatant by detecting the activity of Gaussia luciferase (Gluc), using a Centro XS3 LB 960 luminometer.

VSV-G/HIV-Fluc = assay type: cell-based, human immunodeficiency viruses type 1 (HIV-1)
DENV2 (Tr1751) = experiment: Infection assay with DENV2 in A549 cells (qRT-PCR); assay type: cell-based
Experimental: 5 × 10^5 per well A549 cells were seeded into 6-well plates for 24 h, and infected with DENV2 (Tr1751) at an MOI of 0.1 in the presence of RAI-13 with 2-fold dilutions (from 0.08 to 20 μM) for 4 h. The culture supernatants were replaced by Fresh medium with RAI-13 with 2-fold dilutions. Cells were harvested at 48 h.p.i. The RNA extraction kit was used to extract total RNA. The level of viral RNA was determined by qRT-PCR analysis through one-step SYBR PrimeScript RT-PCR kit ([Yi et al., 2019]). The primer pair (forward: 5′-[…]-3′ and reverse: 5′-[…]-3′) amplifies partial envelop protein E gene of DENV2. The Forward and Reverse primers were also, respectively, used for minus-strand and plus-strand RNA reverse transcription. Human glyceraldehyde-3-phosphate dehydrogenase (hGAPDH) was served as an internal control and amplified with primers 5′-ATCA[…]-3′ and 5′-[…]-3′.

A549 cells = experiment: Cytotoxicity analysis (Cell Counting kit-8), A549; assay type: cell-based; conditions: up to 10 μM, 48 h, CCK-8
Experimental: as §1

[5] = Cytotoxicity analysis (Cell Counting kit-8), A549; assay type: cell-based; conditions: human, A549 cells, CCK-8
Experimental: as §1

[6] = test system: Gaussia luciferase (Gluc); experiment: Effect on Gluc activity in pcDNA-Gluc transfected Huh7.5.1 cells (negative control); assay type: cell-based; conditions: concentrations up to 5 μM, 48 h
DENV RdRp [7] = target: DENV RdRp; design: method as in Noble et al., 2016; conditions: ref Noble et al., 2016; read-out: KD DENV RdRp (literature); cited from earlier work

CN1CCN(c2ccc(C(=O)Nc3n[nH]c4ccc(Cc5cc(F)cc(F)c5)cc34)c(NC3CCOCC3)c2)CC1 [RAI-13, Entrectinib]
IC50 (hNV-RdRp): 46.9 µM | Kd (DENV RdRp [1]): 166 µM | plus-strand and minus-strand RNA levels of MNV (MNV(SH1603); 2.5 μM, infected RAW264.7 cells): inhibits the synthesis of both plus-strand and minus-strand RNA | IC50 (MNV(SH1603); Norwalk virus, RAW264.7, in abstract, read-out: IC50 inhibition of MNV infection (abstract)): 2010 nM | EC50 (MNV(SH1603); Norwalk virus, RAW264.7 cells, 48 h, MNV RNA by qRT-PCR, read-out: EC50 inhibition of MNV infection): 2010 nM | LD50 [2]: above 2000 mg/kg | cytotoxic effect on RAW264.7 cells (RAW264.7 cells): No cytotoxic effect; also recorded: did not observe apparent cytotoxicity | CC50 at 48 h [3]: 13.2 µM | Kd (hNV RdRp): 39.9 µM | inhibitory effect on DENV RdRp activity (DENV RdRp [4]): markedly inhibited | inhibition at 1 µM (Jc1-Gluc HCVcc; Huh-7.5.1, 48 h, read-out: inhibition of Jc1 HCVcc infection): 95% | inhibition at 2 µM (Jc1-Gluc HCVcc; Huh-7.5.1, read-out: inhibition of HCV infection (abstract)): 95% | inhibition of HIV-1 (VSV-G/HIV-Fluc) infection (VSV-G/HIV-Fluc): did not show any inhibition effect | plus-strand and minus-strand RNA levels of DENV2 (DENV2 (Tr1751); 2 μM, infected A549 cells): inhibits the synthesis of both plus-strand and minus-strand RNA | IC50 (DENV2 (Tr1751); Dengue virus, DENV2, A549, read-out: IC50 inhibition of DENV2 infection (abstract)): 2430 nM | EC50 (DENV2 (Tr1751); Dengue virus, A549 cells, 48 h, DENV2 RNA by qRT-PCR, read-out: EC50 inhibition of DENV2 infection): 2430 nM | cytotoxic effect on A549 cells (A549 cells): No cytotoxic effect; also recorded: did not observe apparent cytotoxicity | CC50 at 48 h [5]: 20.8 µM | effect on Gluc activity [6]: no inhibitory effect

COc1ccc(CC(=O)O)cc1-c1ccccc1 [JF-31-MG46, 2-(4-methoxy-3-phenyl-phenyl)ethanoic acid]
Kd (DENV RdRp [7]): 210 µM

Cc1ccc(NC(=O)Nc2cc(C(F)(F)F)ccc2F)cc1Nc1ccc2c(c1)NC(=O)/C2=C\c1ccc[nH]1 [RAI-14, GNF-5837]
IC50 (hNV-RdRp): 45.5 µM | inhibitory effect on DENV RdRp activity (DENV RdRp [4]): no inhibitory effect

O=c1[nH]c2ccccc2n1C1CCN(Cc2ccc(-c3nc4cc5[nH]cnc5cc4nc3-c3ccccc3)cc2)CC1 [RAI-5, AKT inhibitor VIII]
IC50 (hNV-RdRp): 47.3 µM | inhibitory effect on DENV RdRp activity (DENV RdRp [4]): no inhibitory effect

From paper PMC7330483, “Identification of a Broad-Spectrum Viral Inhibitor Targeting a Novel Allosteric Site in the RNA-Dependent RNA Polymerases of Dengue Virus and Norovirus” (Frontiers in Microbiology, 2020)
